{
  "source": "patent US11672790B2",
  "about": "“Methods of managing conditioned fear with neurokinin receptor antagonists” (Emory University, priority 2014, dated 2023)",
  "key": {"[1]": {"test_system": "Tac2-expressing neurons in the CeA", "assay": "Gi-DREADD silencing of Tac2-expressing CeA neurons with CNO, fear conditioning and elevated plus maze", "assay_type": "in vivo, mice", "description": "Tac2-Cre^− or Tac2-Cre^+ mice were infected with the hM4Di-mCherry AAV in the CeA. The Gi receptor was inserted only on the Tac2-Cre cells of Tac2-Cre+mice, CeM=centro-medial amygdala, CeL=centro-lateral amygdala. CNO was given systemically 30 minutes prior to fear conditioning to Tac2-Cre-/hM4Di-mCherry and Tac2 Cre+/hM4DimCherry. […] Tac2-Cre-/hM4DimCherry vs Tac2-Cre+/hM4Di-mCherry. Tac2-Cre-/hM4Di-mCherry and Tac2-Cre+/hM4Di-mCherry mice were retrained to a different acoustic tone (CS) without receiving CNO.\nTo further understand the role of the Tac2 gene, the activity of neurons expressing this gene in the CeA were temporarily silenced during fear learning using designer receptors exclusively activated by designer drugs (DREADD) technology. The B6.129-Tac2tm1.1(cre) Qima/J (Tac2-cre) (Mar et al., Mol. Brain, 2012, 5, 3) mice were infected with a DREADD Gi-coupled receptor via the pAAV-hSyn-double floxed hM4D-mCherry virus (hM4Di-mCherry AAV). […] 14 days later, clozapine-N-oxide (CNO), which binds to the inserted receptor but otherwise is pharmacologically inert, was given systemically 30 minutes before FC in both groups, Tac2-Cre-/hM4Di-mCherry and Tac2-Cre+/hM4Di-mCherry. CNO had no effect on fear acquisition as shown by equivalent amount of freezing in both groups (FIG. 5A). […] Mice were then retrained with a different CS and a different context in the same FC apparatus, as in previous experiments but without dosing CNO."}, "mice [2]": {"test_system": "mice", "assay": "Auditory cued fear conditioning and fear expression test, systemic osanetant", "assay_type": "in vivo", "conditions": "dosed from 30 min before FC up to 1 hour after training; for fear memory consolidation, freezing in the fear expression test: vs vehicle"}, "mice [3]": {"test_system": "mice", "assay": "Elevated plus maze, systemic osanetant 30 minutes before", "assay_type": "in vivo", "conditions": "30 minutes before elevated plus maze", "description": "(§1) Different cohorts of mice received systemic osanetant 30 minutes before open field, elevated plus maze or fear conditioning in the startle chamber.\nFIG. 6C time in open arms,\nFIG. 6D entries in open arms, and\nFIG. 6E time in closed arms in the elevated plus maze.\n(§2) The above studies indicate that osanetant would target the Nk3R in the amygdale in vivo. Osanetant given systemically, 30 minutes before open field, elevated plus maze and the conditioning chamber elicits no changes in anxiety-like behavior, locomotor activity or electric shock reactivity."}, "mice [4]": {"test_system": "mice", "assay": "Shock reactivity in the startle chamber", "assay_type": "in vivo", "conditions": "systemic, 30 minutes before testing in the startle chamber", "description": "as §1, §2"}, "CeA-NK3R": {"molecular_target": "T1, CeA-NK3R (Mus musculus, UniProt P47937)", "T1 construct": "from tissue; host or cells: central amygdala of living mice (in vivo infusion)", "T1 sequence (P47937 1-452)": "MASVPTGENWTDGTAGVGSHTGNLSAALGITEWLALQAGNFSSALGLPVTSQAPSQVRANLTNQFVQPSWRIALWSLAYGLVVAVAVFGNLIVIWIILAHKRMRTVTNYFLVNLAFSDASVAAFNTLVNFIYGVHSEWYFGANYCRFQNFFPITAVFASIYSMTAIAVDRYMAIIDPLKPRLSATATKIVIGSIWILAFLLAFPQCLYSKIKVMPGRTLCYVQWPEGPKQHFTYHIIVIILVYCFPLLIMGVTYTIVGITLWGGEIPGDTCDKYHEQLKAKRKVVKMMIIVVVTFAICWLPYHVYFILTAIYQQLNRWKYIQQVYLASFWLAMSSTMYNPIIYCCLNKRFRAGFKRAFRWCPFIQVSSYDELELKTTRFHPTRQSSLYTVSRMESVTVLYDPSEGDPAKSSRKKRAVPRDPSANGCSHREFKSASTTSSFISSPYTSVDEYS", "assay": "Osanetant bilaterally injected into the central amygdala, cued-fear expression test", "assay_type": "in vivo, mice", "conditions": "bilateral infusion in the CeA immediately after fear conditioning; vs vehicle", "description": "(§3) Recently, the PACAP-PAC1R pathway has been associated with PTSD in humans as well as in animal models. (See Stevens et al., 2014)."}, "[5]": {"test_system": "Pac1 receptor (Adcyap1r1)", "assay": "Adcyap1r1 (PAC1 receptor) mRNA levels in the amygdala after fear conditioning", "assay_type": "in vivo, mice", "conditions": "intraperitoneally 30 minutes before fear conditioning, vs Veh-FC", "description": "The PACAP-PAC1R pathway is associated with PTSD, fear conditioning and stress.\nas §3"}, "mice [6]": {"test_system": "mice", "assay": "Open field, systemic osanetant 30 minutes before", "assay_type": "in vivo", "conditions": "30 minutes before open field", "description": "as §1, §2"}, "IMO treated mice": {"test_system": "IMO treated mice", "assay": "Fear conditioning after immobilization to a wooden board (IMO), PTSD-like model", "assay_type": "in vivo", "conditions": "systemic immediately after FC", "description": "Veh=vehicle; Osa=osanetant.\nMice exposed for 2 hours to a severe one-time stressor, immobilization to a wooden board (IMO), present long-term PTSD-like symptoms: impaired fear extinction and spatial memory, and enhanced anxiety-like behaviors. Additionally, IMO in rats elicits alterations of the hypothalamic-pituitary-adrenal (HPA) axis which may be similar to the process initiating PTSD in humans."}, "Nk3R": {"molecular_target": "T2, Nk3R (Mus musculus, UniProt P47937)", "T2 construct": "endogenous in cells; host or cells: mouse amygdala cell culture (primary)", "T2 sequence (P47937 1-452)": "T1 sequence (P47937 1-452)", "assay": "Amygdala cell culture incubated with osanetant, Nk3R mRNA levels", "assay_type": "cell-based", "conditions": "incubation with 20 μg and 40 μg of osanetant, vs Veh", "description": "Moreover, NkB peptide is also highly expressed in the CeA. […] The Nk3R antagonist osanetant has already been used in humans in clinical trials for schizophrenia."}, "guinea-pigs": {"test_system": "guinea-pigs", "conditions": "cited from earlier work"}, "mice [7]": {"test_system": "mice", "assay": "Fear conditioning in mice with LV-Tac2 or LV-GFP infused in the central amygdala, systemic osanetant", "assay_type": "in vivo", "conditions": "systemic immediately after FC, tested 24 hours later", "description": "The lentivirus GFP-FUGW induces GFP expression but not Neurokinin B (NkB) in Hek293 cells. […] Tac2-FUGW or GFP-FUGW were bilaterally infused in the central amygdala and mice were left undisturbed for 14 days.\nThe lentiviruses GFP-FUGW and Tac2-FUGW causes no changes in fear conditioning. Osanetant or vehicle were given systemically immediately after fear acquisition.\nA viral vector was developed to overexpress the Tac2 gene in an inducible fashion within the brain, the lentivirus-Tac2 (LV-Tac2). […] The behavioral effects of Tac2 overexpression was examined in mice. […] Mice infected with the LVTac2 or LV-GFP received systemic osanetant or vehicle immediately after FC, and then fear expression was tested 24 hours later. Specific CeA-Tac2 overexpression elicited a significant enhancement of fear memory consolidation. […] Additionally, the enhanced fear memory consolidation caused by CeA-Tac2 overexpression was reversed by osanetant (Post-hoc, **P≤0.01 vs LV-Tac2-Osa and LV-GFP-Osa FIG. 4D)."}},
  "note": "Entries after “also recorded” stand apart in the source; their conditions may differ.",
  "data": [
    {"smiles": "C[N+]1([O-])CCN(C2=Nc3cc(Cl)ccc3Nc3ccccc32)CC1", "note": "[CNO, clozapine-N-oxide]", "values": [
      {"measurement": "anxiety-like behavior, elevated plus maze", "setting": "[1]; CNO 30 minutes before, both Tac2-Cre groups", "value": "equivalent levels; also recorded: no effect"},
      {"measurement": "fear acquisition, freezing", "setting": "[1]; CNO systemically 30 minutes before FC, Tac2-Cre-/hM4Di-mCherry and Tac2-Cre+/hM4Di-mCherry", "value": "no effect; also recorded: did not affect freezing during fear acquisition"},
      {"measurement": "fear expression, freezing 24 hrs later in the absence of CNO", "setting": "[1]; Tac2-Cre+/hM4Di-mCherry vs Tac2-Cre-/hM4Di-mCherry, CNO 30 minutes before FC", "value": "less freezing; also recorded: less conditioned fear"},
      {"measurement": "pain sensitivity", "setting": "[1]; given CNO, both Tac2-Cre groups", "value": "equivalent levels"}
    ]},
    {"smiles": "CC(=O)N(C)C1(c2ccccc2)CCN(CCC[C@]2(c3ccc(Cl)c(Cl)c3)CCCN(C(=O)c3ccccc3)C2)CC1", "note": "[osanetant, (R)-N-{{3-[1-Benzoyl-3-(3,4-dichlorophenyl)piperidin-3-yl]prop-1-yl}-4-phenylpiperidin-4-yl}-N-methylacetamine]", "values": [
      {"measurement": "fear acquisition", "setting": "mice [2]", "value": "does not affect fear acquisition"},
      {"measurement": "fear acquisition", "setting": "mice [2]; listed as Osanetant", "value": "without affecting fear expression"},
      {"measurement": "fear memory consolidation, freezing in the fear expression test", "setting": "mice [2]", "value": "impairs fear memory consolidation; also recorded: impairs fear learning"},
      {"measurement": "fear memory consolidation, freezing in the fear expression test", "setting": "mice [2]; listed as Osanetant", "value": "impairs cued-fear memory; also recorded: impairs fear memory consolidation"},
      {"measurement": "anxiety-like behavior in the elevated plus maze (time in open arms, entries in open arms, time in closed arms)", "setting": "mice [3]", "value": "no effects"},
      {"measurement": "anxiety-like behavior in the elevated plus maze (time in open arms, entries in open arms, time in closed arms)", "setting": "mice [3]; listed as Osanetant", "value": "no changes; also recorded: did not modified anxiety-like behavior"},
      {"measurement": "electric shock reactivity", "setting": "mice [4]", "value": "no effects; also recorded: Equivalent shock reactivity"},
      {"measurement": "electric shock reactivity", "setting": "mice [4]; listed as Osanetant", "value": "no changes"},
      {"measurement": "fear memory consolidation, freezing in the cued-fear expression test", "setting": "CeA-NK3R", "value": "impaired fear memory consolidation"},
      {"measurement": "Adcyap1r1 (PAC1 receptor) mRNA levels in the amygdala", "setting": "[5]", "value": "impaired the enhancement of mRNA levels"},
      {"measurement": "Adcyap1r1 (PAC1 receptor) mRNA levels in the amygdala", "setting": "[5]; listed as Osanetant", "value": "normalizes the levels; also recorded: prevented the up-regulation"},
      {"measurement": "anxiety-like behavior, time in the center of the open field", "setting": "mice [6]", "value": "no effects"},
      {"measurement": "locomotor activity, distance travelled in the open field", "setting": "mice [6]", "value": "no effects; also recorded: equivalent distance travelled"},
      {"measurement": "anxiety-like behavior, time in the center of the open field", "setting": "mice [6]; listed as Osanetant", "value": "no changes; also recorded: did not modified anxiety-like behavior"},
      {"measurement": "locomotor activity, distance travelled in the open field", "setting": "mice [6]; listed as Osanetant", "value": "no changes"},
      {"measurement": "fear memory consolidation, freezing in the fear expression test", "setting": "IMO treated mice", "value": "impaired memory consolidation"},
      {"measurement": "fear memory consolidation, freezing in the fear expression test", "setting": "IMO treated mice; listed as Osanetant", "value": "impaired fear memory consolidation"},
      {"measurement": "Nk3R mRNA levels", "setting": "Nk3R", "value": "dose-dependent enhanced Nk3R mRNA levels; also recorded: enhances Nk3R mRNA levels; also recorded: increases Nk3R mRNA levels"},
      {"measurement": "substance P-induced bronchial hyperreactivity", "setting": "guinea-pigs", "value": "prevents"},
      {"measurement": "enhanced fear memory consolidation caused by CeA-Tac2 overexpression", "setting": "mice [7]; LV-Tac2 mice", "value": "reversed; also recorded: impairs this effect"},
      {"measurement": "fear memory consolidation", "setting": "mice [7]; control LV-GFP mice, vs LV-GFP-Veh", "value": "impaired fear memory consolidation"}
    ]}
  ]
}
